According to ChEMBL document CHEMBL6092213, “Rational Exploration of 2,4-Diaminopyrimidines as DHFR Inhibitors Active against Mycobacterium abscessus and Mycobacterium avium, Two Emerging Human Pathogens” (J Med Chem, 2024):
Converted amounts (≈) assume the structure as drawn.

Assays:
[1] = Inhibition of Mycobacterium avium DHFR using 7, 8 dihydrofolate as substrate incubated for 1 hr by plate reader assay
[2] = Inhibition of Mycobacterium abscessus DHFR using 7, 8 dihydrofolate as substrate incubated for 1 hr by plate reader assay; design: species or system Mycobacteroides abscessus
Dihydrofolate reductase = target: T1, Dihydrofolate reductase (Homo sapiens, UniProt P00374); test: Inhibition of human DHFR using 7, 8 dihydrofolate as substrate incubated for 1 hr by plate reader assay; type: toxicity
T1 sequence (P00374 whole entry): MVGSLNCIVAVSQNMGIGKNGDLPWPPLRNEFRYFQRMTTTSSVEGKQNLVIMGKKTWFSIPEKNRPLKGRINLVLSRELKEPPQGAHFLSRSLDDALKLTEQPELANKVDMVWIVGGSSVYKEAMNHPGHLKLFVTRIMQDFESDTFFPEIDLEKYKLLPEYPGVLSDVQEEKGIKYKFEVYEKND

[3] = test system: Mycobacteroides abscessus; test: Antibacterial activity against Mycobacterium abscessus ATCC 19977 incubated for 2 days by resazurin microtiter assay; type: functional; settings: ATCC 19977, 48 h, time 2 day
[4] = Solubility of compound in PBS at pH 7.4 incubated for 24 hrs by UPLC analysis; type: physicochemical; settings: for solubility: buffer, pH 7.4, 24 h
[5] = Apparent permeability in MDCK-II cells incubated for 1 hr by LC-MS/MS method; type: ADME, cell-based, Canis lupus familiaris; settings: dog
[6] = Metabolic stability in human liver microsomes assessed as intrinsic clearance at 0.5 uM measured upto 30 mins in presence of NADPH by UPLC-MS/MS analysis; type: ADME, Microsome; settings: 0.5 h
[7] = Metabolic stability in mouse hepatocytes assessed as intrinsic clearance at 0.5 uM measured upto 120 mins in presence of NADPH by UPLC-MS/MS analysis; type: ADME, cell-based, Hepatocyte; settings: 2 h
[8] = Metabolic stability in human hepatocytes assessed as intrinsic clearance at 0.5 uM measured upto 120 mins in presence of NADPH by UPLC-MS/MS analysis; type: ADME, cell-based, Hepatocyte; settings: 2 h
[9] = Clearance in mouse; type: ADME, organism-based; settings: in vivo
[10] = Volume of distribution in mouse; type: ADME, organism-based; settings: in vivo
[11] = Half-life in mouse; type: ADME, organism-based; settings: in vivo
HepG2 = test: Cytotoxicity against human HepG2 cells assessed as viable cells at 100 uM incubated for 72 hrs by resazurin dye based plate reader assay; type: toxicity, cell-based; settings: hepg2, 72 h
[12] = AUClast in BALB/c mouse at 1 mg/kg, iv measured upto 24 hrs by UPLC/MS-MS analysis; type: ADME, organism-based; settings: in vivo
[13] = AUCinfinity in BALB/c mouse at 1 mg/kg, iv measured upto 24 hrs by UPLC/MS-MS analysis; type: ADME, organism-based; settings: in vivo
[14] = Extrapolated AUC in BALB/c mouse at 1 mg/kg, iv measured upto 24 hrs by UPLC/MS-MS analysis; type: ADME, organism-based; settings: in vivo
[15] = Observed clearance in BALB/c mouse at 1 mg/kg, iv measured upto 24 hrs by UPLC/MS-MS analysis; type: ADME, organism-based; settings: in vivo
[16] = Observed volume of distribution at steady state in BALB/c mouse at 1 mg/kg, iv measured upto 24 hrs by UPLC/MS-MS analysis; type: ADME, organism-based; settings: in vivo
[17] = Half-life in BALB/c mouse at 1 mg/kg, iv measured upto 24 hrs by UPLC/MS-MS analysis; type: ADME, organism-based; settings: in vivo
[18] = AUClast in BALB/c mouse at 3 mg/kg, po measured upto 24 hrs by UPLC/MS-MS analysis; type: ADME, organism-based; settings: in vivo
[19] = Cmax in BALB/c mouse at 3 mg/kg, po measured upto 24 hrs by UPLC/MS-MS analysis; type: ADME, organism-based; settings: in vivo
[20] = Tmax in BALB/c mouse at 3 mg/kg, po measured upto 24 hrs by UPLC/MS-MS analysis; type: ADME, organism-based; settings: in vivo
[21] = Oral bioavailability in BALB/c mouse at 3 mg/kg measured upto 24 hrs by UPLC/MS-MS analysis; type: ADME, organism-based; settings: in vivo
[22] = Unbound fraction in mouse plasma; type: ADME, cell-free
[23] = Lipophilicity, logP of compound; type: physicochemical; settings: octanol/water

IC50 [1] [nM]	IC50 [2] [nM]	MIC [3] [µg/mL]	SMILES	IC50 (Dihydrofolate reductase) [nM]	other results
> 5000	> 5000		COc1nc(N)nc(N)c1OCCCOc1ccccc1CCC(=O)O	> 5000	
17	77	0.6 (≈ 1.47 µM)	Nc1nc(N)c(OCCCOc2ccccc2CCC(=O)O)c(-c2ccncc2)n1	> 5000	
> 5000	> 5000		CCCCOc1nc(N)nc(N)c1OCCCOc1ccccc1CCC(=O)O	> 5000	
> 5000	> 5000		CCCOc1nc(N)nc(N)c1OCCCOc1ccccc1CCC(=O)O	> 5000	
210	210		COc1ccccc1-c1nc(N)nc(N)c1OCCCOc1ccccc1CCC(=O)O	> 5000	
4.5	8.3	0.6 (≈ 1.49 µM)	CCCCCc1nc(N)nc(N)c1OCCCOc1ccccc1CCC(=O)O	430	
240	45	12.9 (≈ 33.1 µM)	NCCCc1nc(N)nc(N)c1OCCCOc1ccccc1CCC(=O)O	> 5000	
220	990		Nc1ncc(OCCCOc2ccccc2CCC(=O)O)c(N)n1	9700	
60	13	5.6 (≈ 12.8 µM)	COc1cccc(-c2nc(N)nc(N)c2OCCCOc2ccccc2CCC(=O)O)c1	> 5000	
63	30	6.2 (≈ 14.9 µM)	Nc1nc(N)c(OCCCOc2ccccc2CCC(=O)O)c(C2CCNCC2)n1	> 5000	
3.8	0.86		CCCc1nc(N)nc(N)c1OCCCOc1ccccc1CCC(=O)O	7.2	
28	42	3.6 (≈ 7.56 µM)	Nc1nc(N)c(OCCCOc2ccccc2CCC(=O)O)c(-c2ccccc2C(F)(F)F)n1	> 5000	
1900	320		Nc1nc(N)c(OCCCOc2ccccc2CCC(=O)O)c(-c2cccc(C(F)(F)F)c2)n1	> 5000	
		1.7 (≈ 2.9 µM)	NCC[C@H](O)C(=O)N[C@@H]1C[C@H](N)[C@@H](O[C@H]2O[C@H](CN)[C@@H](O)[C@H](O)[C@H]2O)[C@H](O)[C@H]1O[C@H]1O[C@H](CO)[C@@H](O)[C@H](N)[C@H]1O [AMIKACIN]		

SMILES	IC50 [1] [nM]	IC50 [2] [nM]	MIC [3] [µg/mL]	IC50 (Dihydrofolate reductase) [nM]	other results
CCc1nc(N)nc(N)c1OCCCOc1ccccc1CCC(=O)O	4.3	0.8	10.1 (≈ 28 µM)	120	solubility [4]: 233 µM (≈ 84 µg/mL); Papp [5]: 3 ×10⁻⁶ cm/s; intrinsic clearance [6]: < 0.4 mL/min/g; CLH [7]: < 0.76 mL/min/g; intrinsic clearance [8]: < 0.66 mL/min/g; clearance [9]: 43.6 mL/min/kg; Vd [10]: 2.5 L/kg; half-life [11]: 39 min
Nc1nc(N)c(OCCCOc2ccccc2CCC(=O)O)c(CCCCO)n1	5	4.9	0.1 (≈ 0.247 µM)	460	solubility [4]: 227 µM (≈ 91.8 µg/mL); Papp [5]: 0.8 ×10⁻⁶ cm/s; intrinsic clearance [6]: < 0.4 mL/min/g; CLH [7]: < 0.76 mL/min/g; intrinsic clearance [8]: < 0.66 mL/min/g
Nc1nc(N)c(OCCCOc2ccccc2CCC(=O)O)c(-c2ccccc2)n1	7	17	0.3 (≈ 0.734 µM)	> 5000	solubility at 24 h ([4]; PBS, pH 7.4): 52 µM (≈ 21.2 µg/mL); Papp [5]: 5.4 ×10⁻⁶ cm/s; intrinsic clearance [6]: 0.43 mL/min/g; CLH [7]: 2.2 mL/min/g; intrinsic clearance [8]: < 0.66 mL/min/g
Nc1nc(N)c(OCCCOc2ccccc2CCC(=O)O)c(C2CCCCC2)n1	6.3	1.1	0.1 (≈ 0.241 µM)	2100	solubility [4]: 43 µM (≈ 17.8 µg/mL); Papp [5]: 3.2 ×10⁻⁶ cm/s; intrinsic clearance [6]: 0.54 mL/min/g; CLH [7]: 2.2 mL/min/g; intrinsic clearance [8]: < 0.66 mL/min/g; Activity (HepG2): > 60%; AUClast [12]: 40507 ng·min/mL; AUC [13]: 42750 ng·min/mL; %AUCextra [14]: 5%; clearance [15]: 23 mL/min/kg; Vdss [16]: 0.9 L/kg; t1/2 [17]: 30 min; AUClast [18]: 49232 ng·min/mL; Cmax [19]: 279 ng/mL; Tmax [20]: 30 min; F [21]: 41%; Fu [22]: ~ 0.02; logP [23]: 3.6
COc1ccc(-c2nc(N)nc(N)c2OCCCOc2ccccc2CCC(=O)O)cc1	5.2	17	0.2 (≈ 0.456 µM)	700	solubility [4]: 67 µM (≈ 29.4 µg/mL); Papp [5]: 4.1 ×10⁻⁶ cm/s; intrinsic clearance [6]: < 0.4 mL/min/g; CLH [7]: 0.59 mL/min/g; intrinsic clearance [8]: < 0.66 mL/min/g
